Experimental data as given in paper PMC6543040, “Structural and biochemical characterization of Rv0187, an O-methyltransferase from Mycobacterium tuberculosis” (Scientific Reports, 2019).

Assays:
Rv0187 [1] = target: T1, Rv0187 (Mycobacterium tuberculosis, UniProt O07431); type: biochemical; design: pLATE31-Rv0187 (C-terminal His6-tag)
Rv0187 [2] = target: T1, Rv0187; assay: co-crystal structure, […] Å; type: binding; design: C-terminal His6-tag after a TEV cleavage site (pLATE31-Rv0187-TEV)
Rv0187 [3] = target: T1, Rv0187; assay: biochemical; type: binding
O=C(O)c1ccc(O)c(O)c1 = assay: purified protein; settings: SAM; Mg2+
COc1cc(C(=O)O)cc(O)c1O = assay: purified protein; settings: SAM; Mg2+
[4] = test system: O=C(O)/C=C/c1ccc(O)c(O)c1; assay: purified protein; settings: SAM; Mg2+
SEC = target: the molecule itself; assay: SEC

T1 sequence (O07431 whole entry): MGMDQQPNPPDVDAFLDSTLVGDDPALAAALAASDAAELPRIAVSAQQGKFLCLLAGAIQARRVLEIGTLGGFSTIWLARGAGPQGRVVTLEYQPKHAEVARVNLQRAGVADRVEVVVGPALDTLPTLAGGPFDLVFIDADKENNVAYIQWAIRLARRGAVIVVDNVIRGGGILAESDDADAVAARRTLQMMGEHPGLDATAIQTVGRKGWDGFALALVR

With `O=Cc1ccc(O)c(O)c1` [DHA, 3,4-dihydroxy-benzaldehyde] the “in vitro methyltransfer assay, HPLC/LC-MS” value (Rv0187 [1]) was “DHA, dopamine and CA were preferentially methylated at the meta position”.

`O=C(O)c1cc(O)c(O)c(O)c1` [GA, gallic acid] was tested, and the “in vitro methyltransfer assay, HPLC/LC-MS” value (Rv0187 [1]) was “PCA, 5OMeBA, and GA were more readily modified at the para-hydroxyl group”.

`Nc1ncnc2c1ncn2[C@@H]1O[C@H](CSCC[C@H](N)C(=O)O)[C@@H](O)[C@H]1O` [SAH, S-adenosyl-l-homocysteine] was tested, and the “co-crystal structure, 1.64 Å” value (Rv0187 [2]) was “each subunit exhibits the unambiguous presence of a divalent metal ion and SAH”.

With `C[S+](CC[C@H](N)C(=O)[O-])C[C@H]1O[C@@H](n2cnc3c(N)ncnc32)[C@H](O)[C@@H]1O` (stereo partly drawn) [SAM, S-adenosyl-l-methionine] the Kd (Rv0187 [3]) was 9.3 ± 0.7 µM.

In the case of `NCCc1ccc(O)c(O)c1` [dopamine], the “in vitro methyltransfer assay, HPLC/LC-MS” value (Rv0187 [1]) is reported as “DHA, dopamine and CA were preferentially methylated at the meta position”.

With `O=c1[nH]c(=O)n([C@@H]2O[C@H](CO)[C@@H](O)[C@H]2O)cc1O` [ho^5U, 5-hydroxyuridine] the “in vitro methyltransfer assay, HPLC/LC-MS” value (Rv0187 [1]) was “methylation of 5-hydroxyuridine (ho^5U) yielded a single product, 5-methoxyuridine (mo^5U)”.

For `O=c1c(O)c(-c2ccc(O)c(O)c2)oc2cc(O)cc(O)c12` [quercetin], the “in vitro methyltransfer assay, HPLC/LC-MS” value (Rv0187 [1]) was “Rv0187 was able to methylate flavonoids (luteolin and quercetin), although the precise methylation site could not be assigned”.

Work on “Rv0187 (Mycobacterium tuberculosis H37Rv)” yielded a Km (O=C(O)c1ccc(O)c(O)c1) of 150 ± 20 µM, a Km (COc1cc(C(=O)O)cc(O)c1O) of 30 ± 4 µM and a Km [4] of 490 ± 170 µM.

B1: Rv0187 fused with a C-terminal His6-tag (pLATE31-Rv0187 construct) (enzyme)
chain: MDQQPNPPDVDAFLDSTLVGDDPALAAALAASDAAELPRIAVSAQQGKFLCLLAGAIQARRVLEIGTLGGFSTIWLARGAGPQGRVVTLEYQPKHAEVARVNLQRAGVADRVEVVVGPALDTLPTLAGGPFDLVFIDADKENNVAYIQWAIRLARRGAVIVVDNVIRGGGILAESDDADAVAARRTLQMMGEHPGLDATAIQTVGRKGWDGFALALVR
notes: also called MTB Rv0187; C-terminal His6-tagged construct; not shown: His6, C-terminal, kept
In the case of B1, the “stoichiometry N” value (SEC) is reported as 2.
